According to PubChem BioAssay AID2060340 (Molecular Pharmacology Branch, DTP, NCI, 2025):

Tested on: 349418-098-R-PDC spheroids, viability, % test/control
Assay: Anticancer human tumor 349418-098-R-PDC patient-derived lung adenocarcinoma cell line growth inhibition [IpAb]
Details: spheroids with HUVEC and MSC; for IC50: curve of first compound; for viability, T/C: stronger effect = lower value
Source text: Combinatorial screen of targeted agents with ipatasertib and abemaciclib in multi-cell type tumor spheroids
A high-throughput screen of multi-cell type tumor spheroids was designed to identify active combinations of targeted small molecules and ipatasertib or abemaciclib. Complex spheroids include a stromal component modeled by human endothelial cells (HUVEC) and fibroblasts modeled by human mesenchymal stem cells (MSCs). The concentration ranges selected for each drug and investigational agent were based upon clinically achievable concentrations if the clinical Cmax of the agent was known.
Compounds. The drugs and investigational agents: ipatasertib (NSC767898), abemaciclib(NSC768073), selumetinib (NSC741078), trametinib (758246), adavosertib (NSC754352), everolimus (NSC733504), sapanisertib (NSC764658), vemurafenib (NSC761431), venetoclax (NSC766270), copanlisib (NSC809693), apelisib (NSC765974), palbociblib (NSC758247), vemurafenib (NSC761431), dabrafenib (NSC764134), ravoxertinib (NSC781343), BMS-387032 (NSC767048), sotorasib (NSC818433), talazoparib (NSC767125) and afursertib (NSC778305), were obtained from the National Cancer Institute (NCI) Developmental Therapeutics Program Chemical Repository. The FDA-approved anticancer drug set is available from the NCI Developmental Therapeutics Program. […] The stock solutions were prepared in dimethyl sulfoxide (DMSO, Sigma-Aldrich, St. Louis, MO, cat. D2650) at 800-fold the tested concentration and stored at -70 degrees C prior to their use. All drugs and investigational agents were tested over a range starting from a high concentration at or near the clinical Cmax and decreasing in half-log increments. If the clinical Cmax for an agent had not been determined, the highest concentration tested was 10 microM.
NCI60 Cell Culture. NCI60 cell lines were obtained from the NCI Developmental Therapeutics Program Tumor Repository. For each lot of cells, the Repository performed Applied Biosystems AmpFLSTR Identifiler testing with PCR amplification to confirm consistency with the published Identifier STR profile for each cell line. Cells were kept in continuous culture for no more than 20 passages. The optimal seeding densities for each of the cell lines at each time point assessed were determined prior to performing the concentration response studies. Briefly, the NCI60 human tumor lines were grown as monolayers in RPMI 1640 medium supplemented with 10% FBS and 2 mmol/L L-glutamine.
An additional 9 lines were from the NCI60 cell line panel including MDA-MB-231 breast carcinoma, MDA-MB-468 breast carcinoma, MCF7 breast carcinoma, Hs578T breast carcinoma, MALME-3M melanoma, SK-MEL-2 melanoma, SK-OV-3 ovarian carcinoma, DU-145 prostate carcinoma, PC-3 prostate carcinoma, all cell lines along with major genetic alterations are listed on Table 2. Pooled donor human umbilical vein endothelial cells (HUVEC, Lonza, cat. CC-2519) and human mesenchymal stem cells (hMSC, Lonza, cat. PT-2501) were purchased from Lonza (Walkersville, MD).
PDMR cell lines were grown in complete medium (DC medium): Dulbecco's modified Eagle's medium (DMEM)/F12 supplemented with 5% fetal bovine serum (FBS), 2 mM L-glutamine, 100 U/mL penicillin and 100 µg/ml streptomycin, 0.4 µg/ml hydrocortisone, 10 ng/ml epidermal growth factor (EGF) recombinant human protein, 24 µg/mL adenine, and 0.1 mg/mL primocin. During culture from frozen stock vials, PDMR cells were cultured in the same medium containing 10 µM Y-27632 (see Table 3). The PDCs were cultured in complete DMEM/F12 media without 10 microM Y-27632 dihydrochloride for at least two passages prior to the screen. The pooled donor HUVEC and hMSC were cultured in endothelial cell growth medium 2 (PromoCell, Heidelberg, Germany, cat. C-22011) and mesenchymal stem cell growth medium 2 (PromoCell, cat. C-28009), respectively. For all experiments, HUVEC and hMSC were used at passages </=5.
[…]

[1] = second compound 0.1 µM, first compound 0.0316 µM
[2] = second compound 0.1 µM, first compound 0.1 µM
[3] = second compound 0.316 µM, first compound 0.0316 µM
[4] = second compound 0.316 µM, first compound 0.1 µM
[5] = second compound 1 µM, first compound 0.0316 µM
[6] = second compound 1 µM, first compound 0.1 µM
[7] = second compound 3.16 µM, first compound 0.0316 µM
[8] = second compound 3.16 µM, first compound 0.1 µM
[9] = second compound 10 µM, first compound 0.0316 µM
[10] = second compound 10 µM, first compound 0.1 µM
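Further: spheroids exposed to compounds for 7 days.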

## CC(C)n1nc(-c2ccc3oc(N)nc3c2)c2c(N)ncnc21 + CC(C)NCC(C(=O)N1CCN(c2ncnc3c2C(C)CC3O)CC1)c1ccc(Cl)cc1
Second compound 0.1 µM
  IC50: 0.681 nM
Second compound 0.316 µM
  IC50: < 0.316 nM
Second compound 1 µM
  IC50: < 0.316 nM
Second compound 3.16 µM
  IC50: < 0.316 nM
Second compound 10 µM
  IC50: < 0.316 nM
Second compound 0.1 µM, first compound 0.000316 µM
  viability, T/C: 69.4%
Second compound 0.1 µM, first compound 0.001 µM
  viability, T/C: 40.3%
Second compound 0.1 µM, first compound 0.00316 µM
  viability, T/C: 14.5%
Second compound 0.1 µM, first compound 0.01 µM
  viability, T/C: 7.8%
[1]
  viability, T/C: 6.65%
[2]
  viability, T/C: 6.26%
Second compound 0.316 µM, first compound 0.000316 µM
  viability, T/C: 31.8%
Second compound 0.316 µM, first compound 0.001 µM
  viability, T/C: 17.4%
Second compound 0.316 µM, first compound 0.00316 µM
  viability, T/C: 8.31%
Second compound 0.316 µM, first compound 0.01 µM
  viability, T/C: 5.95%
[3]
  viability, T/C: 5.66%
[4]
  viability, T/C: 5.5%
Second compound 1 µM, first compound 0.000316 µM
  viability, T/C: 14.4%
Second compound 1 µM, first compound 0.001 µM
  viability, T/C: 8.54%
Second compound 1 µM, first compound 0.00316 µM
  viability, T/C: 5.9%
Second compound 1 µM, first compound 0.01 µM
  viability, T/C: 4.87%
[5]
  viability, T/C: 5.35%
[6]
  viability, T/C: 4.7%
Second compound 3.16 µM, first compound 0.000316 µM
  viability, T/C: 10.7%
Second compound 3.16 µM, first compound 0.001 µM
  viability, T/C: 6.81%
Second compound 3.16 µM, first compound 0.00316 µM
  viability, T/C: 5.04%
Second compound 3.16 µM, first compound 0.01 µM
  viability, T/C: 4.7%
[7]
  viability, T/C: 4.32%
[8]
  viability, T/C: 5.98%
Second compound 10 µM, first compound 0.000316 µM
  viability, T/C: 6.8%
Second compound 10 µM, first compound 0.001 µM
  viability, T/C: 5.96%
Second compound 10 µM, first compound 0.00316 µM
  viability, T/C: 5.29%
Second compound 10 µM, first compound 0.01 µM
  viability, T/C: 3.92%
[9]
  viability, T/C: 4.43%
[10]
  viability, T/C: 4.42%

## CCCS(=O)(=O)Nc1ccc(F)c(C(=O)c2c[nH]c3ncc(-c4ccc(Cl)cc4)cc23)c1F + CC(C)NCC(C(=O)N1CCN(c2ncnc3c2C(C)CC3O)CC1)c1ccc(Cl)cc1
Second compound 0.1 µM
  IC50: 106 nM
Second compound 0.316 µM
  IC50: < 31.6 nM
Second compound 1 µM
  IC50: < 31.6 nM
Second compound 3.16 µM
  IC50: < 31.6 nM
Second compound 10 µM
  IC50: < 31.6 nM
[1]
  viability, T/C: 56.4%
[2]
  viability, T/C: 48.1%
Second compound 0.1 µM, first compound 0.316 µM
  viability, T/C: 42.4%
Second compound 0.1 µM, first compound 1 µM
  viability, T/C: 38.4%
Second compound 0.1 µM, first compound 3.16 µM
  viability, T/C: 33.5%
Second compound 0.1 µM, first compound 10 µM
  viability, T/C: 15.7%
[3]
  viability, T/C: 32.9%
[4]
  viability, T/C: 29.4%
Second compound 0.316 µM, first compound 0.316 µM
  viability, T/C: 29.8%
Second compound 0.316 µM, first compound 1 µM
  viability, T/C: 21.7%
Second compound 0.316 µM, first compound 3.16 µM
  viability, T/C: 21.4%
Second compound 0.316 µM, first compound 10 µM
  viability, T/C: 11.2%
[5]
  viability, T/C: 19.1%
[6]
  viability, T/C: 16.6%
Second compound 1 µM, first compound 0.316 µM
  viability, T/C: 11.9%
Second compound 1 µM, first compound 1 µM
  viability, T/C: 10.1%
Second compound 1 µM, first compound 3.16 µM
  viability, T/C: 11%
Second compound 1 µM, first compound 10 µM
  viability, T/C: 7.7%
[7]
  viability, T/C: 9.81%
[8]
  viability, T/C: 7.85%
Second compound 3.16 µM, first compound 0.316 µM
  viability, T/C: 7.36%
Second compound 3.16 µM, first compound 1 µM
  viability, T/C: 6.91%
Second compound 3.16 µM, first compound 3.16 µM
  viability, T/C: 7.18%
Second compound 3.16 µM, first compound 10 µM
  viability, T/C: 6.15%
[9]
  viability, T/C: 6.76%
[10]
  viability, T/C: 6.33%
Second compound 10 µM, first compound 0.316 µM
  viability, T/C: 5.46%
Second compound 10 µM, first compound 1 µM
  viability, T/C: 5.62%
Second compound 10 µM, first compound 3.16 µM
  viability, T/C: 5.53%
Second compound 10 µM, first compound 10 µM
  viability, T/C: 4.47%
